# Test results from article PMC6540222, “Small Molecule Inhibitors of KDM5 Histone Demethylases Increase the Radiosensitivity of Breast Cancer Cells Overexpressing JARID1B” (Molecules, 2019).
# Tests used:
# [1] = test system: AhR pathway in MCF-7 cells; assay: Real Time PCR of CYP1A1 and AHRR transcripts (AhR pathway); assay type: cell-based, human; settings: MCF-7, 10 μM
# Method: Total RNA from treated cells was isolated using miRNeasy® mini kit (#217004, Qiagen, Venlo, Netherlands), according to producer’s protocol guidelines. One μg of total RNA was reverse-transcribed using QuantiTect® Reverse Transcription Kit (#205311, Qiagen), according to producer’s protocol guidelines (Qiagen).
# Relative quantification of gene expression was performed with the 7500 Real Time PCR System (Thermo Fisher Scientific (Applied Biosystems), Waltham, MA, USA) using SensiFAST™ SYBR® Lo-ROX Kit (#BIO 94020, Bioline, London, UK). The relative amount of mRNA expression was determined by means of ΔΔCt method, using GAPDH as internal control. Primers were designed using www.ncbi.nlm.nih.gov/tools/primer-blast/ and purchased from Sigma-Aldrich. The following oligos were used: • -3′ CYP1A1 mRNA: • - Fw: 5′- […]-3′ • CYP1A1 mRNA: • - Rv: 5′- […]-3′ • AHRR mRNA: • - Fw: 5′- […]-3′ • AHRR mRNA: • - Rv: 5′- […]-3′-3′ • GAPDH mRNA: • - Fw: 5′- […]-3′ • GAPDH mRNA: • - Rv: 5′- CGTTGTCATACCAGGAAAT-3′
# MCF-7 cells [2] = assay: Clonogenic assay after X-ray irradiation; assay type: cell-based, human; settings: for proliferative capacity (clonogenic survival): MCF-7, 10 μM, compared to DMSO control
# Method: One hour after treatment with inhibitors, cells were exposed to X-ray using a MLG 300/6-D apparatus (Gilardoni, Lecco, Italy) set to […] and 6 mA, in order to produce an equivalent absorbed dose of 1cGy/s. Afterwards, cells were harvested, counted and then diluted in inhibitor containing growth medium. Appropriate cell numbers were seeded in quadruplicate according to the doubling time of the cell line and to radiation dose. 24 h after this seeding, the medium with inhibitor was replaced with fresh DMEM and cells were then incubated for 14 days (enough time to allow at least six cell divisions). After this period of growth, cells were washed twice with PBS and then fixed and stained with a suitable volume of a solution made of 0.3% Methylene Blue and 80% Ethanol for 30 min at room temperature. After washing cells twice with ddH2O, plates were pictured with ChemiDoc XRS+ Imaging System (Bio-Rad) in colorimetric mode. Colonies were detected using Fiji software, with the “Find maxima” function setting a background noise threshold of 3000. Radiation-dose response curveS to X-ray for DMSO and inhibitor samples were calculated using surviving fraction. Plating efficiency and surviving fraction were calculated as follows:Plating efficiency = number of colonies counted/number of cells plated Surviving fraction = Plating efficiency/plating efficiency of shame sample
# MCF-7 cells [3] = assay: COMET assay (DNA damage); assay type: cell-based, human; settings: MCF-7, sham-irradiated, 3 μM
# Method: To test if the cytotoxic effects of KDM5 inhibitors on MCF-7 cells were related to an increase of DNA damage accumulation, we collected cells treated with the three KDM5 inhibitors or DMSO-treated control cells after one hour from irradiation with 3 Gy of ionizing radiation (or sham-irradiation). We then performed COMET assays to assess DNA damage.
# The COMET assay was performed using the OxiSelect™ 96-Well Comet Assay Kit (Cell Biolabs, Inc., San Diego, CA, USA) following the manufacturer’s instruction manual (https://www.cellbiolabs.com/sites/default/files/STA-355-comet-assay-kit.pdf).
# KDM5 enzymes = settings: cited from earlier work
# [4] = test system: pan-methyl-H3K9 levels in MCF-7 cells; assay: Western blotting of pan-methyl-H3K9 levels; assay type: cell-based, human; settings: MCF-7, 24 h, three concentrations (1, 10, 30 μM)
# Method: (§1) Histone isolation was performed according to acid extraction of histones protocol of Shechter and colleagues. Histone concentration was determined by running 5 μL of samples and known concentrations of commercially available purified calf thymus histones (from Sigma Aldrich Cat. #000000010223565001) on a SDS-PAGE gel. The gel is stained with Coomassie blue G 250 (BIO-RAD Cat. #161-0786) for 1 hour at room temperature and then destained in distilled water. The gel image is acquired with ChemiDoc XRS+ Imaging System (Bio-Rad, Hercules, CA, USA) and the volumes of bands of the samples are compared to standard concentrations of calf thymus histone.
# (§2) Proteins were resolved on a 12% (histones) or 5% (JARID1B) denaturing polyacrylamide gel, using either 4 μg of histone preparation or 40 μg of cell lysate. […] Blots were scanned and analyzed with a ChemiDoc XRS+ Imaging System (Bio-Rad). The volumes of each band of protein was acquired using Bio-Rad’s ImageLab software by means of volume tools using global quantification. The signal for each protein was normalized to the housekeeping protein and ratios with average control values were determined. For histones as loading control was used either total histone H3 detected by a specific antibody or histone H1 levels by staining the upper part of the gel properly cut before protein transfer on nitrocellulose membrane.
# [5] = test system: H3K27me3 levels in MCF-7 cells; assay: Western blotting of H3K27me3 levels; assay type: cell-based, human
# Method: as §1, §2
"number of clones in sham-irradiated cells (MCF-7 cells [2]; MCF-7, sham-irradiated (not shown))",Structure (SMILES),CYP1A1 and AHRR transcript levels (AhR pathway genes) [1],proliferative capacity (clonogenic survival) (MCF-7 cells [2]; irradiated),"cells with comet tail, sham-irradiated (intrinsic genotoxicity) (MCF-7 cells [3])",inhibition of KDM5B and KDM5D activity in vitro (KDM5 enzymes),"IC50 (KDM5 enzymes; in vitro, toward KDM5 enzymes, ref Mannironi et al. [36])",H3K9me3 (pan-methyl-H3K9) levels [4],"H3K27me3 levels ([5]; MCF-7, 24 h, three concentrations (1, 10, 30 μM))","decrease of H3K27 tri-methylation ([5]; MCF-7, highest concentration of inhibitor)",proliferative capacity (clonogenic survival) (MCF-7 cells [2]; 3 Gy irradiation dose)
lower number of clones,CCOC(=O)c1cccn1C(=O)c1cccc(NS(=O)(=O)c2ccc(OC)cc2)c1 [RS3195],induces the genes involved in AhR pathway,no significant effect,strong effect,selectively inhibit,2000 nM,–,–,–,–
–,CCOC(=O)c1ccccc1C(=O)c1cccc(NS(=O)(=O)c2ccc(OC)cc2)c1 [RS5033],only a slight increase,–,–,–,–,not affected,decrease,about two-fold,slight but significant decrease
